Source: patent US8410302B2, “Methoxyimino compounds and fungicide composition comprising same” (Kyung Nong Corporation, priority 2007, dated 2013)
Read-outs that look alike come from different tables or passages of the source.

Legend:
[1] = test system: Botrytis cinerae; test: Fungicidal activity against cucumber gray mold rot (CGM) disease, control value; type: in vivo; conditions: for pest or weed control at 100 ppm / CGM control value (C.V.): 100 ppm
Experimental: Botrytis cinerae, which was isolated from cucumber infected thereby, was inoculated on a potato agar medium (PEC) and cultured under a 12L/12D cycle at 25° C. for 15 days to form spore. The spores were scraped, filtered through a gauze and then suspended in Potato Dextrose broth at a concentration of 1×10^6 spore/ml. The spore suspension was sprayed on a cucumber plant having one leaf. The cucumber plant was held in a humidified room at 20° C. for 3 days. L.A. on a leaf was measured to calculate a C.V.

[2] = test system: Puccinia recondita; test: Fungicidal activity against wheat leaf rust (WLR) disease, control value; type: in vivo; conditions: for pest or weed control at 2 ppm / pest or weed control at 10 ppm / pest or weed control at 50 ppm / pest or weed control at 100 ppm: read-out: WLR control value (C.V.)
[3] = test system: Rhizoctonia solani AG-1; test: Fungicidal activity against rice sheath blight (RSB) disease, control value; conditions: for pest or weed control at 2 ppm / pest or weed control at 10 ppm / pest or weed control at 50 ppm / pest or weed control at 100 ppm: Rhizoctonia solani, AG1, in Oryza sativa, read-out: RSB control value (C.V.); for RSB control value (C.V.): rice sheath blight
[4] = test system: Erysiphae graminis; test: Fungicidal activity against barley powdery mildew (BPM) disease, control value; type: in vivo; conditions: for pest or weed control at 2 ppm / pest or weed control at 10 ppm / pest or weed control at 50 ppm / pest or weed control at 100 ppm: 168 h, read-out: BPM control value (C.V.)
[5] = test system: Pyricularia oryzae Carvara KA301; test: whole plant or invertebrate; type: in vivo; conditions: for pest or weed control at 2 ppm / pest or weed control at 10 ppm / pest or weed control at 50 ppm / pest or weed control at 100 ppm: Pyricularia oryzae, read-out: RCB control value (C.V.); for RCB control value (C.V.): rice blast
[6] = test system: Phytophthora infestans; test: whole plant or invertebrate; type: in vivo; conditions: for pest or weed control at 10 ppm / pest or weed control at 50 ppm / pest or weed control at 100 ppm / pest or weed control at 2 ppm: Phytophthora infestans, in Solanum lycopersicum, read-out: TLB control value (C.V.); for TLB control value (C.V.): tomato late blight
[7] = Botrytis, read-out: CGM control value (C.V.)

Compound: CNC(=O)/C(=N/OC)c1ccccc1COc1ccc(C=C(Br)Br)c(Cl)c1 [Example 82, (E)-2-(2-((4-(2,2-dibromovinyl)-3-chlorophenoxy)methyl)phenyl)-2-methoxyimino-N-methylacetamide]
- pest or weed control at 100 ppm [1, 7]: 0%
- pest or weed control at 2 ppm ([2]; Puccinia recondita, 2 ppm): 98%
- pest or weed control at 10 ppm ([2]; Puccinia recondita, 10 ppm): 100%
- pest or weed control at 50 ppm ([2]; Puccinia recondita, 50 ppm): 100%
- pest or weed control at 100 ppm ([2]; Puccinia recondita, 100 ppm): 100%
- pest or weed control at 2 ppm [3]: 70%
- pest or weed control at 10 ppm [3]: 90%
- pest or weed control at 50 ppm [3]: 99%
- pest or weed control at 100 ppm [3]: 100%
- pest or weed control at 2 ppm ([4]; 2 ppm): 5%
- pest or weed control at 10 ppm ([4]; 10 ppm): 90%
- pest or weed control at 50 ppm ([4]; 50 ppm): 95%
- pest or weed control at 100 ppm ([4]; 100 ppm): 95%
- pest or weed control at 2 ppm [5]: 70%
- pest or weed control at 10 ppm [5]: 90%
- pest or weed control at 50 ppm [5]: 100%
- pest or weed control at 100 ppm [5]: 100%
- pest or weed control at 10 ppm [6]: 30%
- pest or weed control at 50 ppm [6]: 90%
- pest or weed control at 100 ppm [6]: 90%

Compound: CO/N=C(/C(=O)OC)c1ccccc1COc1ccc(C=C(Br)Br)cc1C [Example 65, methyl-(E)-2-(2-((4-(2,2-dibromovinyl)-2-methylphenoxy)methyl)phenyl)-2-methoxyiminoacetate]
- pest or weed control at 100 ppm [1, 7]: 35%
- pest or weed control at 2 ppm ([2]; Puccinia recondita, 2 ppm): 100%
- pest or weed control at 10 ppm ([2]; Puccinia recondita, 10 ppm): 100%
- pest or weed control at 50 ppm ([2]; Puccinia recondita, 50 ppm): 100%
- pest or weed control at 100 ppm ([2]; Puccinia recondita, 100 ppm): 100%
- pest or weed control at 2 ppm [3]: 97%
- pest or weed control at 10 ppm [3]: 100%
- pest or weed control at 50 ppm [3]: 100%
- pest or weed control at 100 ppm [3]: 100%
- pest or weed control at 2 ppm ([4]; 2 ppm): 60%
- pest or weed control at 10 ppm ([4]; 10 ppm): 95%
- pest or weed control at 50 ppm ([4]; 50 ppm): 100%
- pest or weed control at 100 ppm ([4]; 100 ppm): 100%
- pest or weed control at 2 ppm [5]: 100%
- pest or weed control at 10 ppm [5]: 100%
- pest or weed control at 50 ppm [5]: 100%
- pest or weed control at 100 ppm [5]: 100%
- pest or weed control at 2 ppm [6]: 50%
- pest or weed control at 10 ppm [6]: 80%
- pest or weed control at 50 ppm [6]: 100%
- pest or weed control at 100 ppm [6]: 100%

Compound: CNC(=O)/C(=N/OC)c1ccccc1CON=C(C)c1cccc(C=C(Cl)Cl)c1 [Example 20, (E)-2-[[[[[2-[3-(2,2-dichlorovinyl)phenyl](1-methyl)methylidene]amino]oxy]methyl]phenyl]-2-methoxyimino-N-methylacetamide]
- CGM control value (C.V.) ([1]; cucumber gray mold rot): 74%
- WLR control value (C.V.) ([2]; 2 ppm, wheat leaf rust): 30%
- WLR control value (C.V.) ([2]; 10 ppm, wheat leaf rust): 90%
- WLR control value (C.V.) ([2]; 50 ppm, wheat leaf rust): 98%
- WLR control value (C.V.) ([2]; 100 ppm, wheat leaf rust): 100%
- RSB control value (C.V.) ([3]; 100 ppm): 75%
- BPM control value (C.V.) ([4]; 2 ppm, barley powdery mildew): 100%
- BPM control value (C.V.) ([4]; 10 ppm, barley powdery mildew): 100%
- BPM control value (C.V.) ([4]; 50 ppm, barley powdery mildew): 100%
- BPM control value (C.V.) ([4]; 100 ppm, barley powdery mildew): 100%
- RCB control value (C.V.) ([5]; 2 ppm): 90%
- RCB control value (C.V.) ([5]; 10 ppm): 97%
- RCB control value (C.V.) ([5]; 50 ppm): 100%
- RCB control value (C.V.) ([5]; 100 ppm): 100%
- TLB control value (C.V.) ([6]; 2 ppm): 98%
- TLB control value (C.V.) ([6]; 10 ppm): 100%
- TLB control value (C.V.) ([6]; 50 ppm): 100%
- TLB control value (C.V.) ([6]; 100 ppm): 100%

Compound: CNC(=O)/C(=N/OC)c1ccccc1COc1c(OC)ccc(C=C(Cl)Cl)c1Br [Example 52]
- CGM control value (C.V.) ([1]; cucumber gray mold rot): 45%
- WLR control value (C.V.) ([2]; 2 ppm, wheat leaf rust): 100%
- WLR control value (C.V.) ([2]; 10 ppm, wheat leaf rust): 100%
- WLR control value (C.V.) ([2]; 50 ppm, wheat leaf rust): 100%
- WLR control value (C.V.) ([2]; 100 ppm, wheat leaf rust): 100%
- RSB control value (C.V.) ([3]; 2 ppm): 95%
- RSB control value (C.V.) ([3]; 10 ppm): 100%
- RSB control value (C.V.) ([3]; 50 ppm): 100%
- RSB control value (C.V.) ([3]; 100 ppm): 100%
- BPM control value (C.V.) ([4]; 2 ppm, barley powdery mildew): 99%
- BPM control value (C.V.) ([4]; 10 ppm, barley powdery mildew): 100%
- BPM control value (C.V.) ([4]; 50 ppm, barley powdery mildew): 100%
- BPM control value (C.V.) ([4]; 100 ppm, barley powdery mildew): 100%
- RCB control value (C.V.) ([5]; 2 ppm): 70%
- RCB control value (C.V.) ([5]; 10 ppm): 100%
- RCB control value (C.V.) ([5]; 50 ppm): 100%
- RCB control value (C.V.) ([5]; 100 ppm): 100%
- TLB control value (C.V.) ([6]; 2 ppm): 95%
- TLB control value (C.V.) ([6]; 10 ppm): 100%
- TLB control value (C.V.) ([6]; 50 ppm): 100%
- TLB control value (C.V.) ([6]; 100 ppm): 100%

Compound: CNC(=O)/C(=N/OC)c1ccccc1COc1ccc(C=C(Cl)Cl)cc1Cl [Example 40, (E)-2-(2-((2-chloro-4-(2,2-dichlorovinyl)phenoxy)methyl)phenyl)-2-methoxyimino-N-methylacetamide]
- pest or weed control at 100 ppm ([1]; Botrytis, cucumber gray mold rot, read-out: CGM control value (C.V.)): 10%
- pest or weed control at 2 ppm ([2]; 2 ppm, wheat leaf rust): 100%
- pest or weed control at 10 ppm ([2]; 10 ppm, wheat leaf rust): 100%
- pest or weed control at 50 ppm ([2]; 50 ppm, wheat leaf rust): 100%
- pest or weed control at 100 ppm ([2]; 100 ppm, wheat leaf rust): 100%
- pest or weed control at 2 ppm [3]: 100%
- pest or weed control at 10 ppm [3]: 100%
- pest or weed control at 50 ppm [3]: 100%
- pest or weed control at 100 ppm [3]: 100%
- pest or weed control at 2 ppm ([4]; Hordeum vulgare, 2 ppm, barley powdery mildew): 100%
- pest or weed control at 10 ppm ([4]; Hordeum vulgare, 10 ppm, barley powdery mildew): 100%
- pest or weed control at 50 ppm ([4]; Hordeum vulgare, 50 ppm, barley powdery mildew): 100%
- pest or weed control at 100 ppm ([4]; Hordeum vulgare, 100 ppm, barley powdery mildew): 100%
- pest or weed control at 2 ppm [5]: 100%
- pest or weed control at 10 ppm [5]: 100%
- pest or weed control at 50 ppm [5]: 100%
- pest or weed control at 100 ppm [5]: 100%
- pest or weed control at 100 ppm [6]: 30%

Compound: CO/N=C(/C(=O)OC)c1ccccc1COc1cc(Br)ccc1C=C(Br)Br [Example 85, methyl-(E)-2-(2-((5-bromo-2-(2,2-dibromovinyl)phenoxy)methyl)phenyl)-2-methoxyiminoacetate]
- pest or weed control at 100 ppm [1, 7]: 35%
- pest or weed control at 2 ppm ([2]; Puccinia recondita, 2 ppm): 80%
- pest or weed control at 10 ppm ([2]; Puccinia recondita, 10 ppm): 99%
- pest or weed control at 50 ppm ([2]; Puccinia recondita, 50 ppm): 100%
- pest or weed control at 100 ppm ([2]; Puccinia recondita, 100 ppm): 100%
- pest or weed control at 2 ppm [3]: 60%
- pest or weed control at 10 ppm [3]: 85%
- pest or weed control at 50 ppm [3]: 96%
- pest or weed control at 100 ppm [3]: 99%
- pest or weed control at 2 ppm ([4]; 2 ppm): 25%
- pest or weed control at 10 ppm ([4]; 10 ppm): 70%
- pest or weed control at 50 ppm ([4]; 50 ppm): 97%
- pest or weed control at 100 ppm ([4]; 100 ppm): 100%
- pest or weed control at 2 ppm [5]: 70%
- pest or weed control at 10 ppm [5]: 90%
- pest or weed control at 50 ppm [5]: 100%
- pest or weed control at 100 ppm [5]: 100%
- pest or weed control at 10 ppm [6]: 20%
- pest or weed control at 50 ppm [6]: 100%
- pest or weed control at 100 ppm [6]: 100%

Compound: CNC(=O)/C(=N/OC)c1ccccc1COc1ccc(C=C(Br)Br)cc1Cl [Example 64, (E)-2-(2-((4-(2,2-dibromovinyl)-2-chlorophenoxy)methyl)phenyl)-2-methoxyimino-N-methylacetamide]
- pest or weed control at 50 ppm ([1]; Botrytis, 50 ppm, read-out: CGM control value (C.V.)): 40%
- pest or weed control at 100 ppm [1, 7]: 80%
- pest or weed control at 2 ppm ([2]; Puccinia recondita, 2 ppm): 100%
- pest or weed control at 10 ppm ([2]; Puccinia recondita, 10 ppm): 100%
- pest or weed control at 50 ppm ([2]; Puccinia recondita, 50 ppm): 100%
- pest or weed control at 100 ppm ([2]; Puccinia recondita, 100 ppm): 100%
- pest or weed control at 2 ppm [3]: 95%
- pest or weed control at 10 ppm [3]: 100%
- pest or weed control at 50 ppm [3]: 100%
- pest or weed control at 100 ppm [3]: 100%
- pest or weed control at 2 ppm ([4]; 2 ppm): 97%
- pest or weed control at 10 ppm ([4]; 10 ppm): 100%
- pest or weed control at 50 ppm ([4]; 50 ppm): 100%
- pest or weed control at 100 ppm ([4]; 100 ppm): 100%
- pest or weed control at 2 ppm [5]: 100%
- pest or weed control at 10 ppm [5]: 100%
- pest or weed control at 50 ppm [5]: 100%
- pest or weed control at 100 ppm [5]: 100%
- pest or weed control at 2 ppm [6]: 99%
- pest or weed control at 10 ppm [6]: 100%
- pest or weed control at 50 ppm [6]: 100%
- pest or weed control at 100 ppm [6]: 100%

Compound: CO/N=C(/C(=O)OC)c1ccccc1CON=C(C)c1ccc(C=C(Cl)Br)cc1 [Example 37, methyl-(E)-2-[[[[[2-[4-(2-bromo-2-chlorovinyl)phenyl](1-methyl)methylidene]amino]oxy]methyl]phenyl]-2-methoxyiminoacetate]
- CGM control value (C.V.) ([1]; cucumber gray mold rot): 50%
- WLR control value (C.V.) ([2]; 2 ppm, wheat leaf rust): 100%
- WLR control value (C.V.) ([2]; 10 ppm, wheat leaf rust): 100%
- WLR control value (C.V.) ([2]; 50 ppm, wheat leaf rust): 100%
- WLR control value (C.V.) ([2]; 100 ppm, wheat leaf rust): 100%
- RSB control value (C.V.) ([3]; 100 ppm): 90%
- BPM control value (C.V.) ([4]; 2 ppm, barley powdery mildew): 35%
- BPM control value (C.V.) ([4]; 10 ppm, barley powdery mildew): 90%
- BPM control value (C.V.) ([4]; 50 ppm, barley powdery mildew): 93%
- BPM control value (C.V.) ([4]; 100 ppm, barley powdery mildew): 95%
- RCB control value (C.V.) ([5]; 2 ppm): 75%
- RCB control value (C.V.) ([5]; 10 ppm): 90%
- RCB control value (C.V.) ([5]; 50 ppm): 100%
- RCB control value (C.V.) ([5]; 100 ppm): 100%
- TLB control value (C.V.) ([6]; 10 ppm): 10%
- TLB control value (C.V.) ([6]; 50 ppm): 90%
- TLB control value (C.V.) ([6]; 100 ppm): 100%
